Patent US20260209277A1, “COMPOUNDS FOR RNA STABILISATION AND DELIVERY” (STICHTING VU, priority 2022, published 2026)
No end group written: not given here.

Tests used:
miR-21 [1] = assay: Stabilization Assay of miR-21 in fetal bovine serum; type: in vitro ADME; settings: miR-21 9 μM, peptide 18 μM; for stabilizing effect on miR-21 in increasing FBS: 10 min at 37° C., FBS gradient
Method: The rapid degradation of RNA by nucleases in serum is one of the central challenges associated with the therapeutic use of RNA. Applicants were therefore interested whether peptide binding promotes RNA stability in serum. For this purpose, miR-21 was incubated with different concentrations of fetal bovine serum (FBS) at 37° C., followed by phenol/chloroform extraction and PAGE analysis (FIG. 14). […] Both is in line with their reduced affinity for miR-21 (FIGS. 12a and 12b). To investigate the time-dependence of RNA stability, a prolonged incubation of RNA in serum (27.5% FBS) was performed, and the remaining RNA visualized by native PAGE (FIG. 14d). Remarkably, even after 6 hours, miR-21 was still detectable in the presence of peptide 2^∘∘2, while in the absence of the peptide, RNA was fully degraded within 15 minutes in line with afore made observations. These findings highlight the potential of peptide 2^∘∘2 to strongly enhance the stability of dsRNA in serum.
RNA stabilization was investigated by incubation of peptide/RNA complexes with fetal bovine serum (FBS) (Thermo Fischer Scientific). Peptide/RNA complexes were formed as described above after which defined amounts of FBS were added (concentration(RNA)=9 μM, concentration(peptide)=18 μM, total volume 10 μL). For gradient stability assay FBS containing RNA solutions were incubated at 37° C. for 10 min and for time course analysis at room temperature with 27.5% FBS. After incubation, 10 μL of NaOAc (3 M), 1 μL Glycogen (Thermo Fischer Scientific), 1 μL Ribolock (Thermo Fischer Scientific) and ddH2O was added on ice to a total volume of 200 μL.
RNA was extracted twice with freshly prepared solution of phenol/chloroform (5:1, 2 mL). After ethanol precipitation (1 mL) of the aqueous phase RNA pallets were redissolved in 8 μL ddH2O and added 2 μL 6×BB and then loaded into a native PAGE gel and run with previously described conditions.

miR-21 [2] = assay: Electrophoretic mobility shift assay (EMSA) with miR-21; type: binding; settings: c(RNA)=3 μM; for dsRNA binding in EMSA (band shift): c(peptide)=6 μM, 15% native PAGE
From the text: With the desired peptides in hand, we first assessed their dsRNA-binding potential using an electrophoretic mobility shift assay (EMSA). Making use of non-denaturing conditions, EMSA allows to resolve biomolecular complexes by size and charge character.
WT33 was employed as comparative positive control for peptide binding while the double-stranded microRNA, miR-21, was chosen as a sample dsRNA target for this assay. Comprised of an 18 base pair (bp) duplex, miR-21 can accommodate the binding of two wt33 monomers, similar to siRNA duplexes. Under established EMSA conditions, miR-21 resolves as two bands, a lower band corresponding to both unbound single strands and a higher, more distinct band (ca. 20 bp) corresponding to the miR-21 duplex (FIG. 2a). […] With reference to wt33, the most prominent elevated band (ca. 30 bp) likely corresponds to a 1:1 peptide/dsRNA complex while the upper band may represent a higher order structure. The reduction in ds and ssRNA band intensity is likely a result of these binding events.
Additionally, EMSA experiments were performed where dsRNA was incubated with either peptide 1^∘∘1 or 2^∘∘2 in the presence or absence TCEP. […] Having verified the tuneable, dsRNA-binding abilities of our peptide dimers, their use a cellular siRNA delivery tools was confirmed.
Electrophoretic mobility shift assays (EMSA's) were performed using a Bio-Rad MiniProtean gel system paired with a direct current (DC) power source (PowerPac™ HC, BioRad). Typically, 6 μL solutions containing RNA (concentration=3 μM) and peptide (concentration=6 μM) were incubated for 1 h at RT in a binding buffer (1×TAE and 10% glycerol). For gels monitoring disulfide reduction, peptide/RNA solutions were incubated in increasing concentrations (concentration=6, 60 and 600 μM) of TCEP. After incubation, bound nucleic acid complexes were resolved using 15% and 10% non-denaturing polyacrylamide gels (acrylamide:bis-acrylamide (19:1) in 1×TAE) at 150 V or 120 V in running buffer (1×TAE) at 4° C. for 1.5 hours. […]

miR-21 [3] = assay: Thermal denaturation assay (CD, Tm determination) of miR-21/peptide complexes; type: binding; settings: for melting temperature (Tm) of miR-21 co-incubated with peptide: equimolar c=2 μM, ellipticity at λ=267 nm, miR-21 alone 51° C.
From the text: A thermal denaturation assay was next used to further characterize the dsRNA binding abilities of our peptides. Typically employed in the study of nucleic acid complexes, thermal denaturation assays make use of the spectral changes resulting from complex unfolding as temperature is increased. Using circular dichroism (CD) spectroscopy as a readout, we measured the changes in ellipticity at λ=267 nm, the wavelength maxima associated with A-form dsRNA. In line with previous measurements, the mid-point of denaturation or melting temperature (Tm) associated with miR-21 is 51° C. (FIG. 2b and FIG. 2c). To assess the stability of peptide-dsRNA complexes, peptides were co-incubated with miR-21 at an equimolar concentration (c=2 μM) and measured analogously. […] Contrastingly, incubation with dimeric peptide 1^∘∘1 leads to a greater increase stabilization (Tm=56° C., FIG. 2b) which was also seen for peptide 2 (Tm=58° C., FIG. 2c). […] CD spectroscopy allows not only the measurement of thermal denaturation profiles but can also be used to compare the structural characteristics of biomolecular complexes. […]
Circular dichroism (CD) spectra were recorded with a Jasco J-1500 spectropolarimeter (Jasco) equipped with a programmable Peltier thermostat in a stoppered quartz cuvette (10 mm; Hellma). […] For each sample, 10 CD spectra were measured between 200 nm and 350 nm with continuous scan mode (1 mdeg sensitivity, 1.0 nm resolution, 1.0 nm bandwidth, 2 s integration time, 100 nm/min scan rate). […]
where θ=observed ellipticity/mdeg, c=DNA or RNA strand concentration/mol/L and l=path length/cm. Melting temperature (Tm) determination was conducted with the same instrumentation and sample preparation, where ellipticity (θ=267 nm) was measured by ramping the temperature from 15-90° C. […] Raw data were normalized as described above, and Tm-values were determined using the CDpal program before being plotted in Prism 5.0 (GraphPad).

miR-21 [4] = assay: Isothermal titration calorimetry (ITC); type: binding; settings: for N-value (peptides per miR-21 duplex) / −TΔS (entropic penalty) / Kd: 30° C.; for Kd: 1×PBS
Method: To confirm RNA-binding, isothermal titration calorimetry (ITC) was used. […] For wt33 this is in line with applicants' previously reported observations.
Isothermal titration calorimetry (ITC) was conducted using a VP-ITC (MicroCal). Before measurement, annealed miR-21 and peptide samples were dissolved in 1×PBS and degassed using a ThermoVac and heated to 30° C. miR-21 (c=6-15 μM) was then transferred into the sample cell (1.8 mL) and peptides (c=86-305 μM) were transferred into the syringe (300 μL). 37 Injections per measurement were performed at 30° C. (8 μl injection volume, 3.2 s injection time, 180 s spacing, high feedback mode) with an initial delay of 60 s and a stirring speed of 310 rpm. Data were analyzed using the MicroCal LLC ITC software (Origin; OriginLab Corporation), the heat associated with each injection was calculated by integrating the area under the curve for each injection and then normalized to concentration. A ‘single set of identical binding sites’ model was used to fit the binding curves from which thermodynamic binding parameters (ΔG, ΔH, ΔS, N and Kd) were calculated.

RNA hairpins (HP 1-5) = assay: EMSA with RNA hairpins (HP 1-5); type: binding; settings: HP 1-5 c=1 μM, peptide c=4 μM
Method: The binding of 2^∘∘2 to a set of five ds RNA hairpins, composed of different, complementary 19 base pair stems bridged via a fixed 6 nucleotide loop (FIG. 8a).
Electrophoretic mobility shift assays (EMSA's) were performed using a Bio-Rad MiniProtean gel system paired with a direct current (DC) power source (PowerPac™ HC, BioRad). […] For gels monitoring disulfide reduction, peptide/RNA solutions were incubated in increasing concentrations (concentration=6, 60 and 600 μM) of TCEP. After incubation, bound nucleic acid complexes were resolved using 15% and 10% non-denaturing polyacrylamide gels (acrylamide:bis-acrylamide (19:1) in 1×TAE) at 150 V or 120 V in running buffer (1×TAE) at 4° C. for 1.5 hours. For nucleic acid visualization, gels were stained using 2 μL of SYBR™ gold nucleic acid gel dye (Invitrogen) in 20 mL of 1×TAE buffer for 15 minutes at RT before being imaged using a Bio-Rad ChemiDoc.

HEK293 cells = assay: Confocal microscopy of Cy5-siRNA uptake in HEK cells; type: cell-based; settings: HEK293, Cy5-siRNA 1 μM
Method: For that purpose, a 21 nt long siRNA comprised of a 19 bp stem and equipped with the far-red fluorescent label, cyanine 5 (Cy5) to monitor RNA internalization (Cy5-siRNA, FIG. 7a) was employed. Initially, HEK293 cells were incubated with Cy5-siRNA (c=1 μM, 37° C., 1 h) before being imaged by confocal fluorescence microscopy. […] To assess the tunability of this effect, Cy5-siRNA/1^∘∘1 or Cy5-siRNA/2^∘∘2 complexes were also pre-treated with the reducing agent dithiothreitol (DTT) in order to promote complex disassembly.
HEK cells were seeded at a density of 40000 cells per well on an 8 well micro-slide (Ibidi), one day before the experiment. They were cultured in DMEM (Thermofisher Scientific), supplemented with 10% Fetal Calf Serum (FCS, PAN Biotech) and glutamax (Life technologies). Before starting the experiment, the peptides and Cy5-labelled siRNA were incubated at a peptide/siRNA ratio of 2:1 (6 μM-3 μM) for 1 h. In case for dithiothreitol (DTT) supplemented experiments, DTT was added to a concentration of 20 mM. The samples were diluted to a final siRNA concentration of 1 μM in serum free DMEM. Cells were washed 1× to remove FCS, and incubated in the siRNA:peptide solution for 1 hour at 37° C. After incubation, cells were washed with the phenol-red free DMEM with HEPES, and imaged. […]

| Substance | stabilizing effect on miR-21 in increasing FBS (miR-21 [1]) | dsRNA binding in EMSA (band shift) (miR-21 [2]) | melting temperature (Tm) of miR-21 co-incubated with peptide (miR-21 [3]) [°C] | N-value (peptides per miR-21 duplex) (miR-21 [4]) | −TΔS (entropic penalty) (miR-21 [4]) [kcal/mol] | Kd (miR-21 [4]) [nM] | time miR-21 still detectable in serum in presence of peptide (miR-21 [1]; 27.5% FBS, room temperature, without peptide fully degraded within 15 minutes) [h] | binding to RNA hairpins in EMSA (RNA hairpins (HP 1-5)) | EMSA of dsRNA/peptide complex with increasing TCEP (miR-21 [2]; c(ligand)=6 μM, c(TCEP)=6, 60 and 600 μM) | ΔTm, lowering of melting temperature of dsRNA complex by TCEP (miR-21 [3]; excess reducing agent, 1 mM TCEP vs no TCEP) [°C] | cellular uptake of Cy5-siRNA co-incubated with peptide (fluorescence) (HEK293 cells; 37° C., 1 h, versus Cy5-siRNA alone) | cellular uptake of Cy5-siRNA/peptide complex pre-treated with DTT (HEK293 cells; DTT pre-treatment (20 mM)) | fold higher affinity than wt33 (miR-21 [4]; Kd ratio versus wt33) [fold] |
| --- | --- | --- | --- | --- | --- | --- | --- | --- | --- | --- | --- | --- | --- |
| Ac-KKQAQRKRHKLNRKERGHKSPSEQRRSELWHAR (SEQ ID NO 19); 33-amino acid TAV2b RNA-binding peptide without dimerization motif, comparative positive control [wt33, reference compound] | considerably smaller | smeared elevated band (ca. 50 bp), corresponding to a 2:1, peptide/dsRNA complex | 58 | 1.91 | 9.3 | 328 |  |  |  |  |  |  |  |
| N-terminal disulfide (S-S) homodimer of stapled XβNQKKQAQRKRHKS5NRKS5R (SEQ ID NO 23) [peptide 2^∘∘2] | residual RNA levels at 20% FBS to be comparable to those at 1% FBS in the absence of peptide | comparable band is also observed | 60 | 1.89 | 5.7 | 31.7 | ≥ 6 | showed binding to each hairpin | partial disassembly or unlocking of the dsRNA-peptide complex | 4 | increase in fluorescence intensity | decrease cellular fluorescence intensities | 10 |
